Data published in patent publication US20110034472A1, “Novel Compounds for Treatment of Cancer and Disorders Associated With Angiogenesis Function” (UNIVERSITY OF SOUTHERN CALIFORNIA, priority 2004, published 2011).
Like-named read-outs stand apart in the source and are kept apart here.

Assays:
HEY ovarian cancer cells = assay: MTT cytotoxicity assay, HEY; type: cell-based, human; conditions: Homo sapiens, HEY; for IC50: 72 hours continuous exposure, read-out: IC50 values (mean ± SD)
Experimental: (§1) The sensitivity of a panel of seven human cancer cell lines to SC144 was assessed by MTT-assay. […] The sensitivity towards SC144 was time- and dose-dependent.
(§2) Cytotoxicity was assessed by a 3-(4,5-dimethylthiazol-2-yl)-2,5-diphenyltetrazolium bromide assay as previously described (Carmichael et al. (1987) Cancer Res. 47:936-42). Briefly, cells were seeded in 96-well microtiter plates (PC3 and DU145 at 5,000 cells/well and LNCaP at 10,000 cells/well; breast and ovarian cells at 4,000 cells/well) and allowed to attach. Cells were subsequently treated with a continuous exposure to the corresponding drug for 72 hours. A 3-(4,5-dimethylthiazol-2-yl)-2,5-diphenyltetrazolium bromide solution (at a final concentration of 0.5 mg/mL) was added to each well and cells were incubated for 4 hours at 37° C. After removal of the medium, DMSO was added and the absorbance was read at 570 nm. All assays were done in triplicate. The IC50 was then determined for each drug from a plot of log(drug concentration) versus percentage of cell kill.

[1] = system: MCF-7 breast cancer cells; assay: MTT cytotoxicity assay, MCF-7; type: cell-based, human; conditions: for IC50: MCF7, 72 hours continuous exposure, read-out: IC50 values (mean ± SD); for CC50: MTT-assay, read-out: CC50 values (mean ± SD)
Experimental: as §1, §2

[2] = system: DU145 prostate cancer cells; assay: MTT cytotoxicity assay, DU145; type: cell-based; conditions: Homo sapiens; for IC50: DU-145, 72 hours continuous exposure, read-out: IC50 values (mean ± SD)
Experimental: as §1, §2

DU145 cells = assay: Cell cycle analysis (propidium iodide), SC21, DU145; type: cell-based, human; conditions: 72 hours of exposure, IC50
Experimental: FIG. 17 depicts flow cytometric analysis of the cell cycle profiles of DU145, PC3, MDA-MB-435, and HEY cells treated with SC21. […] SC21 induced a G0/G1 phase arrest in DU145 and MDA-MB-435 cells and S phase arrest in PC3 and HEY cells.
Cell cycle perturbations induced by SC21 and camptothecin (CPT) were analyzed by propidium iodide DNA staining. Briefly, exponentially growing PC3 and DU145 cells were treated with different doses of the drug for 24, 48, and 72 hours. At the end of each treatment time, cells were collected and washed with PBS after a gentle centrifugation at 200×g for 5 minutes. Cells were thoroughly resuspended in 0.5 mL of PBS and fixed in 70% ethanol for at least 2 hours at 4° C. Ethanol-suspended cells were then centrifuged at 200×g for 5 minutes and washed twice in PBS to remove residual ethanol. For cell cycle analysis, the pellets were suspended in 1 mL of PBS containing 0.02 mg/mL of propidiumiodide, 0.5 mg/mL of DNase-free RNase A and 0.1% of Triton X-100 and incubated at 37° C. for 30 minutes. Cell cycle profiles were obtained using a FACScan flowcytometer (Becton Dickinson, San Jose, Calif.) and data were analyzed by ModFit LT software (Verity Software House, Inc., Topsham, Me.). […]

[3] = system: LNCaP prostate cancer cells; assay: MTT cytotoxicity assay, LNCaP; type: cell-based; conditions: Homo sapiens
Experimental: as §2
(§3) Cytotoxicity was assessed by a 3-(4,5-dimethylthiazol-2-yl)-2,5-diphenyltetrazolium bromide (MTT) assay as previously described.^9 Briefly, cells were seeded in 96-well microtiter plates and allowed to attach. Cells were subsequently treated with continuous exposure to the corresponding drug for 72 h. An MTT solution (at a final concentration of 0.5 mg/mL) was added to each well, and cells were incubated for 4 h at 37° C. After removal of the medium, DMSO was added and the absorbance was read at 570 nm. All assays were done in triplicate. The IC50 was then determined for each drug from a plot of log (drug concentration) versus percentage of cells killed.

[4] = system: MDA-MB-468 breast cancer cells; assay: MTT cytotoxicity assay, MDA-MB-468; type: cell-based; conditions: Homo sapiens; for IC50: 72 hours continuous exposure, read-out: IC50 values (mean ± SD)
Experimental: as §1, §2

[5] = system: MDA-MB-435 breast cancer cells; assay: MTT cytotoxicity assay, MDA-MB-435; type: cell-based, human; conditions: Homo sapiens
Experimental: as §1, §2, §3

CEM or HEY cells = assay: Cytotoxicity of salicylhydrazides (Table 5); type: cell-based; conditions: Homo sapiens
Text: Human prostate cancer cells (PC3, p53 null, AR−; DU145, p53 mutant, AR−; and LNCaP, p53 wild-type, AR+) and breast cancer cells (MCF-7, overexpressed wild-type p53, ER+; MDA-MB-468, p53 mutant, […]; and MDA-MB-435, p53 mutant, ER−) were obtained from American Type Cell Culture (Manassas, Va.). The human ovarian carcinoma cell line (HEY) naturally resistant to cisplatin (CDDP) was kindly provided by Dr. Dubeau (University of Southern California Norris Cancer Center; Buick et al. (1985) Cancer Res. 45:3668-76 and Hamaguchi et al. (1993) Cancer Res. 53:5225-32). The results with CEM cells were previously described (Neamati et al. (1998) J. Med. Chem. 41:3202-9). Cells were maintained as monolayer cultures in RPMI 1640 supplemented with 10% fetal bovine serum (Gemini-Bioproducts, Woodland, Calif.) and 2 mmol/L L-glutamine at 37° C. in a humidified atmosphere of 5% CO2. To remove the adherent cells from the flask for passaging and counting, cells were washed with PBS without calcium or magnesium, incubated with a small volume of 0.25% trypsin-EDTA solution (Sigma-Aldrich, St. Louis, Mo.) for 5 to 10 minutes, and washed with culture medium and centrifuged. All experiments were done using cells in exponential cell growth.
as §2

[6] = system: PC3 prostate cancer cells; assay: MTT cytotoxicity assay, PC3; type: cell-based; conditions: Homo sapiens
Experimental: as §1, §2

MDA-MB-435 cells = assay: MTT assay, continuous drug exposure for 48 hours (Table 3); type: cell-based, human; conditions: for IC80: MDA-MB-435, read-out: CC80
[7] = system: HCT-116 colon cancer cells; assay: Sensitivity of various cancer cells to SC144, HCT-116; type: cell-based; conditions: Homo sapiens
Text: The studies were expanded to other cell lines. […] Subnanomolar to low nanomolar potency was also observed in HCT-116 and HT29 colon cancer cell lines (Table 2).

[8] = 72 hours continuous exposure, read-out: IC50 values (mean ± SD)
[9] = PC-3, PC3 cells, read-out: IC50 value
[10] = PC3, 72 hours continuous exposure, read-out: IC50 values (mean ± SD)
[11] = MTT-assay, read-out: CC50 values (mean ± SD)

Compound | IC50 (HEY ovarian cancer cells) [µM] | IC50 ([1]; Homo sapiens, MCF-7) [µM] | IC50 [2] [µM] | IC50 [3, 8] [µM] | IC50 [4] [µM] | IC50 [5, 8] [µM] | IC50 (CEM or HEY cells) [µM] | IC50 [6, 9] [µM] | IC50 [6, 10] [µM] | IC80 (MDA-MB-435 cells; Homo sapiens) [µM] | also measured
O=C(NNC(=O)c1ccccc1O)C1=CC2C=CC=CC2C=C1O (stereo not drawn) [SC21] | 0.4 ± 0.06 | 0.04 ± 0.007 | 0.12 ± 0.05 | 0.2 ± 0.07 | 0.2 ± 0.002 | 0.035 ± 0.007 | 0.4 ± 0.06 | 3.2 ± 0.2 | 3.25 |  | cells retained in G0/G1 phase (DU145 cells): 65%
O=C(NNC(O)c1cc2ccccc2cc1O)c1cc2ccccc2cc1O (stereo not drawn) [SC23] | 2.35 | 0.28 ± 0.035 | 0.05 ± 0.019 | 0.85 ± 0.2 | 0.05 ± 0.014 | 0.24 ± 0.028 | 2.3 ± 0.2 | 2 ± 0.5 | 2 | 0.1 ± 0.01 | CC50 (MDA-MB-435 cells): 0.04 ± 0.007 µM
O=C(NNc1nc2cc(F)ccc2n2cccc12)c1cnccn1 [SC144, Pyrazine-2-carboxylic acid N′-(7-fluoro-pyrrolo[1,2-a]quinoxalin-4-yl)-hydrazide] |  |  |  |  |  |  |  |  |  | 10 ± 0.01 | CC50 (HEY ovarian cancer cells; [11]): 1 ± 0.06 µM; CC50 ([1]; Homo sapiens, MCF7, MCF-7): 1.7 ± 0.3 µM; CC50 ([1]; MCF-7): 2 ± 0.3 µM; CC50 [7]: 0.017 µM; CC50 ([2]; DU-145, MTT-assay, read-out: CC50 values (mean ± SD)): 3 ± 0.3 µM; IC50 ([3]; hLNCaP, MTT, 72 h, read-out: IC50): 0.4 ± 0.06 µM; CC50 [4, 11]: 0.7 ± 0.1 µM; CC50 (MDA-MB-435 cells; Homo sapiens, MDA-MB-435): 4 ± 1.4 µM; IC50 ([5]; MTT, 72 h, read-out: IC50): 4 ± 0.1 µM; CC50 [5, 11]: 4 ± 1.4 µM; CC50 ([6]; PC3, MTT-assay, read-out: CC50 values (mean ± SD)): 10 ± 0.2 µM
